In US9771381B2, “Derivatives of 1-amino-2-cyclobutylethylboronic acid” (Millennium Pharmaceuticals, Inc., priority 2008, dated 2017):

Key:
human 20S proteasome [1] = target: human 20S proteasome (Homo sapiens, UniProt P28072+P28074+Q99436); test: Proteasome Inhibition Kinetics (enzyme progress curves); format: biochemical; settings: human 20S proteasome 0.25 nM activated with 0.01% SDS, 37° C.; half-life determined from koff; read-out: dissociation half-life t1/2
Experimental: Enzyme kinetic parameters including dissociation constants and half lives were determined by analysis of enzyme progress curves as follows:
Proteasome inactivation measurements were obtained by monitoring individual progress curves for the hydrolysis of the site-specific fluorogenic 7-amido-4-methylcoumarin (AMC)-labeled peptide substrates (β5, Suc-LLVY-AMC; β2, Z-VLR-AMC, and β1, Z-LLE-AMC) at different inhibitor concentrations. Cleavage of the fluorogenic peptide was continuously monitored as a change in the fluorescence emission at 460 nm (λex=360 nm) and plotted as a function of time. All assays were performed in cuvettes with 2 mL of 50 mM HEPES (pH 7.5), 0.5 mM EDTA, at 37±0.2° C., and with continuous stirring. The concentrations of substrates varied from 10 to 25 μM (<½ KM). The concentration of human 20S proteasome was 0.25 nM and was activated with 0.01% SDS. The rate constant, kobs, describing the conversion from the initial velocity to the steady state velocity, were estimated by nonlinear least-squares regression analysis of the individual progress curves using the equation for time-dependent or slow-binding inhibition:
[formula] where F is fluorescence, vi and vs are the initial and steady state velocities of the reaction in the presence of inhibitor, and t is time. A plot of kobs as a function of [I] was made to obtain kon from the slope of the linear fit of the data. The apparent dissociation constant, K^appii, was determined by nonlinear least-fit of the fractional velocity, vs/vo, as a function of [I], were vs is the steady state value obtained from the time-dependent or slow-binding equation and vo is the initial velocity in the absence of inhibitor: […]
The dissociation constant Ki, was calculated from the apparent Ki using the following expression: […]
The off rate, koff, was mathematically calculated from the above determined parameters using the following relationship:
The half-life was then determined from the koff value using the following relationship: […]

human 20S proteasome [2] = target: T1, human 20S proteasome (Homo sapiens, UniProt P28074); test: 20S Proteasome Assay; format: biochemical; settings: Ac-WLA-AMC substrate 15 μM, human PA28 activator 12 nM, human 20S proteasome 0.25 nM, 37° C., pH7.4
T1 construct: purchased Boston Biochem

| SMILES | residence time (human 20S proteasome [1]) | IC50 (human 20S proteasome [2]) |
| --- | --- | --- |
| O=C(N[C@@H](CC1CCC1)B(O)O)[C@H](Cc1ccccc1)NS(=O)(=O)c1ccc(Oc2cccnc2)cc1 [Compound 45, ((1R)-2-cyclobutyl-1-{[(2S)-3-phenyl-2-({[4-(pyridin-3-yl-oxy)phenyl]sulfonyl}amino)propanoyl]amino}ethyl)boronic acid] | < 10 min | < 50 nM |
| O=C(N[C@@H](CC1CCC1)B(O)O)[C@H](Cc1ccccc1)NS(=O)(=O)c1cc(Cl)ccc1Cl [Compound 35, {(1R)-2-cyclobutyl-1-[((2S)-2-{[(2,5-dichlorophenyl)sulfonyl]amino}-3-phenylpropanoyl)amino]ethyl}boronic acid] | < 10 min | < 50 nM |
| O=C(N[C@@H](Cc1ccccc1)C(=O)N[C@@H](CC1CCC1)B(O)O)c1cnccn1 [Compound 17, [(1R)-2-cyclobutyl-1-({(2S)-3-phenyl-2-[(pyrazin-2-ylcarbonyl)amino]propanoyl}amino)ethyl]boronic acid] | 10 to 60 min | < 50 nM |
| O=C(N[C@@H](Cc1ccccc1)C(=O)N[C@@H](CC1CCC1)B(O)O)c1cccnc1Oc1ccccc1 [Compound 2, {(1R)-2-cyclobutyl-1-[((2S)-2-{[(2-phenoxypyridin-3-yl)carbonyl]amino}-3-phenylpropanoyl)amino]ethyl}boronic acid] | 10 to 60 min | < 50 nM |
| O=C(N[C@@H](Cc1ccccc1)C(=O)N[C@@H](CC1CCC1)B(O)O)c1cc(Cl)ccc1Cl [Compound 6, [(1R)-2-cyclobutyl-1-({(2S)-2-[(2,5-dichlorobenzoyl)amino]-3-phenylpropanoyl}amino)ethyl]boronic acid] | 10 to 60 min | < 50 nM |
| O=C(N[C@@H](CC1CCC1)B(O)O)[C@H](Cc1ccccc1)NS(=O)(=O)c1ccc(Oc2ccccn2)cc1 [Compound 41, ((1R)-2-cyclobutyl-1-{[(2S)-3-phenyl-2-({[4-(pyridin-2-yloxy)phenyl]sulfonyl}amino)propanoyl]amino}ethyl)boronic acid] | < 10 min | < 50 nM |
| CN1CCOc2ccc(S(=O)(=O)N[C@@H](Cc3ccccc3)C(=O)N[C@@H](CC3CCC3)B(O)O)cc21 [Compound 20, {(1R)-2-cyclobutyl-1-[((2S)-2-{[(4-methyl-3,4-dihydro-2H-1,4-benzoxazin-6-yl)sulfonyl]amino}-3-phenylpropanoyl)amino]ethyl}boronic acid] | < 10 min | < 50 nM |
| O=C(N[C@@H](CC1CCC1)B(O)O)[C@H](Cc1ccccc1)NS(=O)(=O)c1cc(F)ccc1F [Compound 38, {(1R)-2-cyclobutyl-1-[((2S)-2-{[(2,5-difluorophenyl)sulfonyl]amino}-3-phenylpropanoyl)amino]ethyl}boronic acid] | – | < 50 nM |
| CC1(C)[C@@H]2C[C@H]3OB([C@H](CC4CCC4)NC(=O)[C@H](Cc4ccccc4)NS(=O)(=O)c4ccc5ccccc5c4)O[C@@]3(C)[C@H]1C2 [Compound 12, (2S)-N-{(1R)-2-cyclobutyl-1-[(3aS,4S,6S,7aR)-3a,5,5-trimethylhexahydro-4,6-methano-1,3,2-benzodioxaborol-2-yl]ethyl}-2-[(2-naphthylsulfonyl)amino]-3-phenylpropanamide] | – | < 50 nM |
| O=C(c1cccc(S(=O)(=O)N[C@@H](Cc2ccccc2)C(=O)N[C@@H](CC2CCC2)B(O)O)c1)c1ccccn1 [Compound 29, ((1R)-2-cyclobutyl-1-{[(2S)-3-phenyl-2-({[3-(pyridin-2-ylcarbonyl)phenyl]sulfonyl}amino)propanoyl]amino}eth-yl)boronic acid] | – | < 50 nM |
| O=C(N[C@@H](CC1CCC1)B(O)O)[C@H](Cc1ccccc1)NS(=O)(=O)c1ccc2ccccc2c1 [Compound 1, [(1R)-2-cyclobutyl-1-({(2S)-2-[(2-naphthylsulfonyl)amino]-3-phenylpropanoyl}amino)ethyl]boronic acid] | < 10 min | < 50 nM |
| O=C(N[C@@H](CC1CCC1)B(O)O)[C@H](Cc1ccccc1)NS(=O)(=O)c1ccc(Oc2ccccc2)nc1 [Compound 11, {(1R)-2-cyclobutyl-1-[((2S)-2-{[(6-phenoxypyridin-3-yl)sulfonyl]amino}-3-phenylpropanoyl)amino]ethyl}boronic acid] | – | < 50 nM |
| O=C(N[C@@H](CC1CCC1)B(O)O)[C@H](Cc1ccccc1)NS(=O)(=O)c1ccc(-c2cnco2)cc1 [Compound 36, ((1R)-2-cyclobutyl-1-{[(2S)-2-({[4-(1,3-oxazol-5-yl)phenyl]sulfonyl}amino)-3-phenylpropanoyl]amino}ethyl)boronic acid] | < 10 min | < 50 nM |
| CC(=O)N[C@@H](CCc1ccccc1)C(=O)N[C@@H](Cc1ccccc1)C(=O)N[C@@H](CC1CCC1)B(O)O [Compound 22, {(1R)-1-[((2S)-2-{[(2S)-2-(acetylamino)-4-phenylbutanoyl]amino}-3-phenylpropanoyl)amino]-2-cyclobutylethyl}boronic acid] | – | < 50 nM |
| CN1C(=O)Cc2cc(S(=O)(=O)N[C@@H](Cc3ccccc3)C(=O)N[C@@H](CC3CCC3)B(O)O)ccc21 [Compound 40, {(1R)-2-cyclobutyl-1-[((2S)-2-{[(1-methyl-2-oxo-2,3-dihydro-1H-indol-5-yl)sulfonyl]amino}-3-phenylpropanoyl)amino]ethyl}boronic acid] | – | < 50 nM |
| CN1CCOc2cc(S(=O)(=O)N[C@@H](Cc3ccccc3)C(=O)N[C@@H](CC3CCC3)B3O[C@@H]4C[C@@H]5C[C@@H](C5(C)C)[C@]4(C)O3)ccc21 [Compound 8, (2S)-N-{(1R)-2-cyclobutyl-1-[(3aS,4S,6S,7aR)-3a,5,5-trimethylhexahydro-4,6-methano-1,3,2-benzodioxaborol-2-yl]ethyl}-2-{[(4-methyl-3,4-dihydro-2H-1,4-benzoxazin-7-yl)sulfonyl]amino}-3-phenylpropanamide] | – | < 50 nM |
| CC1(C)[C@@H]2C[C@H]3OB([C@H](CC4CCC4)NC(=O)[C@H](Cc4ccccc4)NC(=O)c4ccc(O)c(CN5CCOCC5)c4)O[C@@]3(C)[C@H]1C2 [Compound 10, N-[(1S)-1-benzyl-2-({(1R)-2-cyclobutyl-1-[(3aS,4S,6S,7aR)-3a,5,5-trimethylhexahydro-4,6-methano-1,3,2-benzodioxaborol-2-yl]ethyl}amino)-2-oxoethyl]-4-hydroxy-3-(morpholin-4-ylmethyl)benzamide] | – | 50 to 150 nM |
| C[C@H](O)[C@H](NS(=O)(=O)c1ccc(Oc2ccccc2)nc1)C(=O)N[C@@H](CC1CCC1)B(O)O [Compound 42, {(1R)-2-cyclobutyl-1-[((2S)-3-hydroxy-2-{[(6-phenoxypyridin-3-yl)sulfonyl]amino}butanoyl)amino]ethyl}boronic acid] | – | 50 to 150 nM |
| O=C(N[C@@H](CC1CCC1)B(O)O)[C@H](Cc1ccccc1)NS(=O)(=O)c1ccc(Oc2ccncc2)cc1 [Compound 43, ((1R)-2-cyclobutyl-1-{[(2S)-3-phenyl-2-({[4-(pyridin-4-yloxy)phenyl]sulfonyl}amino)propanoyl]amino}ethyl)boronic acid] | < 10 min | < 50 nM |
| C[C@H](O)[C@H](NS(=O)(=O)c1ccc2c(c1)N(C)CCO2)C(=O)N[C@@H](CC1CCC1)B(O)O [Compound 46, {(1R)-2-cyclobutyl-1-[((2S)-3-hydroxy-2-{[(4-methyl-3,4-dihydro-2H-1,4-benzoxazin-6-yl)sulfonyl]amino}butanoyl)amino]ethyl}boronic acid] | – | 50 to 150 nM |
| CC1(C)[C@@H]2C[C@H]3OB([C@H](CC4CCC4)NC(=O)[C@H](Cc4ccccc4)NS(=O)(=O)c4cccnc4)O[C@@]3(C)[C@H]1C2 [Compound 15, (2S)-N-{(1R)-2-cyclobutyl-1-[(3aS,4S,6S,7aR)-3a,5,5-trimethylhexahydro-4,6-methano-1,3,2-benzodioxaborol-2-yl]ethyl}-3-phenyl-2-[(pyridin-3-ylsulfonyl)amino]propanamide] | – | 50 to 150 nM |
| CC1(C)[C@@H]2C[C@H]3OB([C@H](CC4CCC4)NC(=O)[C@H](Cc4ccccc4)NS(=O)(=O)c4ccc(Oc5ccccc5)nc4)O[C@@]3(C)[C@H]1C2 [Compound 24, (2S)-N-{(1R)-2-cyclobutyl-1-[(3aS,4S,6S,7aR)-3a,5,5-trimethylhexahydro-4,6-methano-1,3,2-benzodioxaborol-2-yl]ethyl}-2-{[(6-phenoxypyridin-3-yl)sulfonyl]amino}-3-phenylpropanamide] | – | < 50 nM |
| CN1CCOc2ccc(C(=O)N[C@@H](Cc3ccccc3)C(=O)N[C@@H](CC3CCC3)B(O)O)cc21 [Compound 37, {(1R)-2-cyclobutyl-1-[((2S)-2-{[(4-methyl-3,4-dihydro-2H-1,4-benzoxazin-6-yl)carbonyl]amino}-3-phenylpropanoyl)amino]ethyl}boronic acid] | – | < 50 nM |
